Drawing on the Kinase Knowledgebase extract (Sharma et al. 2016), this text covers IC50 for 38 compounds.

The experiment has as its target PIK3CD (Human) (UniProt O00329). Put plainly: Enzyme Assay.

SMILES strings stand for the structures.

PIK3CD (Human), sequence (O00329 whole entry, looked up): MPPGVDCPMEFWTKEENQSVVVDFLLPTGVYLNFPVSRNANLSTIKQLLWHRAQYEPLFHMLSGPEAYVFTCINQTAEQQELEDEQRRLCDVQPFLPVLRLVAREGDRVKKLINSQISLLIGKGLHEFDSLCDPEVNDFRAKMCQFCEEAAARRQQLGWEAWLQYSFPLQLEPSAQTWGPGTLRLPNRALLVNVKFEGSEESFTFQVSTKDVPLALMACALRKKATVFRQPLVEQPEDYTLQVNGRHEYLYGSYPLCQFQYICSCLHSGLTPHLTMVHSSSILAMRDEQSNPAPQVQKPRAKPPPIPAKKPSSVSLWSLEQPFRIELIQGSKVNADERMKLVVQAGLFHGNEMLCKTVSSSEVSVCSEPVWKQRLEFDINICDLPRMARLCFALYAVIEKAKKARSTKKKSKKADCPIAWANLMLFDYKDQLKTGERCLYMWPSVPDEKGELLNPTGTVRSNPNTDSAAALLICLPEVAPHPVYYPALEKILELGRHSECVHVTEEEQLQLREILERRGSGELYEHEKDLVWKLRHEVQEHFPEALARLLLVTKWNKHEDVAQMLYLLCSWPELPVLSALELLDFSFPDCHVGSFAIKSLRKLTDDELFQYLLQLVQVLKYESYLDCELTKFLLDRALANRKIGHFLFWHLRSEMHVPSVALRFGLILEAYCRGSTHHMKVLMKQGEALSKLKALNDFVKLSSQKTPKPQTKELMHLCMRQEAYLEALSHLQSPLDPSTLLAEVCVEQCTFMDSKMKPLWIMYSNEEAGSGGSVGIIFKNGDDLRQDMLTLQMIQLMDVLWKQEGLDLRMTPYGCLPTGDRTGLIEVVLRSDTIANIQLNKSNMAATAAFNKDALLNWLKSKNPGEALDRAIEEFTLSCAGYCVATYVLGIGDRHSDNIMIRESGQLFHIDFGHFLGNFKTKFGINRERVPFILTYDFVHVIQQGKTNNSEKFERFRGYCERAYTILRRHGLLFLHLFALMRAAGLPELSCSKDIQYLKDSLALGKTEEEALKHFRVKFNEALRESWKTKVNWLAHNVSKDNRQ

Take `C[C@H](Nc1nc(N)nc(N)c1C#N)c1nc2ccccc2c(=O)n1-c1cc(F)cc(F)c1`: the IC50 – broadly, the concentration needed to halve the response being measured – lay in the range of 10 to 50 nM.
The same measure for `C[C@H](Nc1nc(N)nc(N)c1C#N)c1nc2cccc(C(N)=O)c2c(=O)n1-c1ccccc1`: 1 to 10 nM.
The same measure for `C[C@H](Nc1nc(N)nc(N)c1C#N)c1nc2cccc(Cl)c2c(=O)n1-c1ccccc1`: not above 1 nM; for `COc1cccc2nc([C@H](C)Nc3nc(N)nc(N)c3C#N)n(-c3ccccc3)c(=O)c12`: 10 to 50 nM; for `C[C@H](Nc1nc(N)nc(N)c1C#N)c1nc2cccc(C(F)F)c2c(=O)n1-c1ccccc1`: not above 1 nM.
The same measure for `C[C@H](Nc1nc(N)nc(N)c1C#N)c1nc2ccc(F)cc2c(=O)n1-c1cc(F)cc(F)c1`: 1 to 10 nM; for `C[C@H](Nc1nc(N)nc(N)c1C#N)c1nc2ccc(F)cc2c(=O)n1-c1ccccc1`: 1 to 10 nM.
The compound `C[C@H](Nc1nc(N)nc(N)c1C#N)c1nc2c(F)ccc(F)c2c(=O)n1-c1cccc(C#N)c1` yielded an IC50 of 10 to 50 nM.
The same measure for `CC[C@H](Nc1nc(N)nc(N)c1C#N)c1nc2c(F)ccc(F)c2c(=O)n1-c1ccccc1`: 1 to 10 nM; for `CC[C@H](Nc1nc(N)nc(N)c1C#N)c1nc2c(F)cccc2c(=O)n1-c1cc(F)cc(F)c1`: 1 to 10 nM.
The same measure for `C[C@H](Nc1nc(N)nc(N)c1C#N)c1nc2ccc(F)c(F)c2c(=O)n1-c1cc(F)cc(F)c1`: 10 to 50 nM.
The same measure for `CC(C)C[C@H](Nc1nc(N)nc(N)c1C#N)c1nc2cccc(Cl)c2c(=O)n1-c1cccc(C#N)c1`: 10 to 50 nM; for `CC[C@H](Nc1nc(N)nc(N)c1C#N)c1nc2c(C)ccc(F)c2c(=O)n1-c1cc(F)cc(F)c1`: 10 to 50 nM.
Take `C[C@H](Nc1nc(N)nc(N)c1C#N)c1nc2c(Cl)cc(F)cc2c(=O)n1-c1cc(F)cc(F)c1`: the IC50 fell in the range of 1 to 10 nM.
Then `C[C@H](Nc1nc(N)nc(N)c1C#N)c1nc2c(F)ccc(Cl)c2c(=O)n1-c1cc(F)cc(C#N)c1`, with 10 to 50 nM; and `Cc1ccc(F)c2nc([C@H](C)Nc3nc(N)nc(N)c3C#N)n(-c3ccccc3)c(=O)c12`, with not above 1 nM.
The same measure for `C[C@H](Nc1nc(N)nc(N)c1C(N)=O)c1nc2cccc(Cl)c2c(=O)n1-c1cccc(C(F)F)c1`: 1 to 10 nM.
Then `Cc1ccc(F)c2nc([C@H](C)Nc3nc(N)nc(N)c3C#N)n(-c3cccc(C#N)c3)c(=O)c12`, with not above 1 nM.
Take `C[C@H](Nc1nc(N)nc(N)c1C#N)c1nc2c(Cl)ccc(Cl)c2c(=O)n1-c1cc(F)cc(F)c1`: the concentration for half-maximal inhibition (IC50) was in the range of 1 to 10 nM.
Compound `C[C@H](Nc1nc(N)nc(N)c1C#N)c1nc2cccc(S(C)(=O)=O)c2c(=O)n1-c1cccc(F)c1` came in with an IC50 of 1 to 10 nM.
Then `C[C@H](Nc1nc(N)nc(N)c1C#N)c1nc2cccc(C#N)c2c(=O)n1-c1cccc(F)c1`, with 1 to 10 nM; and `C[C@H](Nc1nc(N)nc(N)c1C#N)c1nc2cccc(Cl)c2c(=O)n1-c1cccc(CC(F)F)c1`, with 1 to 10 nM; and `Cc1cccc2nc([C@H](C)Nc3nc(N)nc(N)c3C#N)n(-c3cc(F)cc(F)c3)c(=O)c12`, with not above 1 nM.
The same measure for `C[C@H](Nc1nc(N)nc(N)c1C#N)c1nc2cccc(F)c2c(=O)n1-c1ccccc1`: 1 to 10 nM.
Then `C[C@H](Nc1nc(N)nc(N)c1C#N)c1nc2c(C#N)cc(F)cc2c(=O)n1-c1ccccc1`, with 1 to 10 nM; and `C[C@H](Nc1nc(N)nc(N)c1Cl)c1cc2cccc(Cl)c2c(=O)n1-c1ccccc1`, with not above 1 nM.
`C[C@H](Nc1nc(N)nc(N)c1C#N)c1nc2cccc(S(C)(=O)=O)c2c(=O)n1-c1c(F)cccc1F` returned an IC50 of 1 to 10 nM.
Then `COc1cccc(-n2c([C@H](C)Nc3nc(N)nc(N)c3C#N)nc3cccc(Cl)c3c2=O)c1`, with not above 1 nM; and `C[C@H](Nc1nc(N)nc(N)c1C#N)c1nc2c(C#N)cccc2c(=O)n1-c1ccccc1`, with 1 to 10 nM; and `Cc1cccc2c(=O)n(-c3cccc(C(F)(F)F)c3)c([C@H](C)Nc3nc(N)nc(N)c3C#N)nc12`, with 10 to 50 nM.
The same measure for `C[C@H](Nc1nc(N)nc(N)c1C#N)c1nc2cccc(S(C)(=O)=O)c2c(=O)n1-c1cc(F)cc(C(F)F)c1`: 10 to 50 nM.
The compound `CC[C@H](Nc1nc(N)nc(N)c1C#N)c1nc2ccc(F)cc2c(=O)n1-c1cc(F)cc(F)c1` yielded a concentration for half-maximal inhibition (IC50) of 10 to 50 nM.
Then `C[C@H](Nc1nc(N)nc(N)c1C(N)=O)c1nc2cccc(Cl)c2c(=O)n1-c1cc(F)cc(F)c1`, with 1 to 10 nM.
The same measure for `CC(C)C[C@H](Nc1nc(N)nc(N)c1C#N)c1nc2cccc(Cl)c2c(=O)n1-c1cc(F)cc(F)c1`: 1 to 10 nM; for `CC[C@H](Nc1nc(N)nc(N)c1C#N)c1nc2cccc(F)c2c(=O)n1-c1cc(F)cc(F)c1`: 1 to 10 nM.
The same measure for `CC[C@H](Nc1nc(N)nc(N)c1C#N)c1nc2cccc(Cl)c2c(=O)n1-c1cc(F)cc(C(F)F)c1`: 1 to 10 nM; for `COC[C@@H](Nc1nc(N)nc(N)c1C#N)c1nc2cccc(Cl)c2c(=O)n1-c1cc(F)cc(F)c1`: 1 to 10 nM; for `CC[C@H](Nc1nc(N)nc(N)c1C#N)c1nc2c(Cl)cccc2c(=O)n1-c1cc(F)cc(F)c1`: 10 to 50 nM.
